US10745382B2 (BRISTOL-MYERS SQUIBB COMPANY, priority 2015, dated 2020)
Counter-ions that a name gives are not always drawn. Like-named read-outs stand apart in the source and are kept apart here.

Biological target: T1, PD-1/PD-L1 (Homo sapiens, UniProt Q9NZQ7)
T1 construct: made in house; host or cells: HEK293T
Assay: PD-1/PD-L1 Homogenous Time-Resolved Fluorescence (HTRF) binding assay
Details: PD-L1-His 10 nM, PD-1-Ig 20 nM, read-out: Range or IC50
In short: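 Compounds are tested for blocking the PD-1/PD-L1 interaction in dPBS supplemented with 0.1% BSA and 0.05% (v/v) Tween-20. Tagged proteins are detected with Eu-cryptate anti-Ig and APC anti-His at 1 and 20 nM final.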

T1 sequence (Q9NZQ7 with tags, fused parts or gaps): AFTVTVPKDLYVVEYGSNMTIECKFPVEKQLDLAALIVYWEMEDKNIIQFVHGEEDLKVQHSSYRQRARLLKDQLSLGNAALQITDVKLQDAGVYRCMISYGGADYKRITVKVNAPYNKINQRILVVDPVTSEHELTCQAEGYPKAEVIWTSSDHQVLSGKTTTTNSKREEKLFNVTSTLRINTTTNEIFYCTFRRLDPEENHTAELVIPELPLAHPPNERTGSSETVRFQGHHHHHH

With `COc1cc(OCc2cccc(-c3cccc(OCCCN4CC[C@@H](O)C4)c3C)c2C)c(Cl)cc1CN[C@@H](CO)C(=O)O` [Example 3035, (2S)-2-((5-chloro-4-((3′-(3-((R)-3-hydroxypyrrolidin-1-yl)propoxy)-2,2′-dimethyl-[1,1′-biphenyl]-3-yl)methoxy)-2-methoxybenzyl)amino)-3-hydroxypropanoic Acid] the IC50 (value given as range class) was 0.21 to 10 nM.

Work on `COc1cc(OCc2cccc(-c3cccc(OCCCN4CC[C@@H](O)C4)c3C)c2C)c(Cl)cc1CN1CCCC[C@H]1C(=O)O` [Example 3036, (2S)-1-(5-chloro-4-((3′-(3-((R)-3-hydroxypyrrolidin-1-yl)propoxy)-2,2′-dimethyl-[1,1′-biphenyl]-3-yl)methoxy)-2-methoxybenzyl)piperidine-2-carboxylic Acid] yielded an IC50 (value given as range class) of 0.21 to 10 nM.

`Cc1c(COc2cc(OCc3cncc(C#N)c3)c(CN[C@@](C)(CO)C(=O)O)cc2Cl)cccc1-c1cccc(OCCCN2CCC(O)(c3ccccc3)C2)c1C` (stereo partly drawn) [Example 3037, (2S)-2-((5-chloro-2-((5-cyanopyridin-3-yl)methoxy)-4-((3′-(3-(3-hydroxy-3-phenylpyrrolidin-1-yl)propoxy)-2,2′-dimethyl-[1,1′-biphenyl]-3-yl)methoxy)benzyl)amino)-3-hydroxy-2-methylpropanoic Acid] was tested, and the IC50 (value given as range class) was 0.21 to 10 nM.

`Cc1c(COc2cc(OCc3cncc(C#N)c3)c(CN[C@](C)(CO)C(=O)O)cc2Cl)cccc1-c1cccc(OCCCN2CCC(O)(c3ccccc3)C2)c1C` (stereo partly drawn) [Example 3038, (2R)-2-((5-chloro-2-((5-cyanopyridin-3-yl)methoxy)-4-((3′-(3-(3-hydroxy-3-phenylpyrrolidin-1-yl)propoxy)-2,2′-dimethyl-[1,1′-biphenyl]-3-yl)methoxy)benzyl)amino)-3-hydroxy-2-methylpropanoic Acid] was tested, and the IC50 (value given as range class) was 0.21 to 10 nM.

In the case of `Cc1c(COc2cc(OCc3cncc(C#N)c3)c(CN[C@@H](CO)C(=O)O)cc2Cl)cccc1-c1cccc(OCCCN2CCC(O)(c3ccccc3)C2)c1C` (stereo partly drawn) [Example 3039, (2S)-2-((5-chloro-2-((5-cyanopyridin-3-yl)methoxy)-4-((3′-(3-(3-hydroxy-3-phenylpyrrolidin-1-yl)propoxy)-2,2′-dimethyl-[1,1′-biphenyl]-3-yl)methoxy)benzyl)amino)-3-hydroxypropanoic Acid], the IC50 (value given as range class) is reported as 0.21 to 10 nM.

With `Cc1c(COc2cc(OCc3cncc(C#N)c3)c(CN3CCCC[C@H]3C(=O)O)cc2Cl)cccc1-c1cccc(OCCCN2CCC(O)(c3ccccc3)C2)c1C` (stereo partly drawn) [Example 3040, (2S)-1-(5-chloro-2-((5-cyanopyridin-3-yl)methoxy)-4-((3′-(3-(3-hydroxy-3-phenylpyrrolidin-1-yl)propoxy)-2,2′-dimethyl-[1,1′-biphenyl]-3-yl)methoxy)benzyl)piperidine-2-carboxylic Acid] the IC50 (value given as range class) was 0.21 to 10 nM.

With `Cc1c(COc2cc(OCc3cncc(C#N)c3)c(CN[C@@](C)(CO)C(=O)O)cc2Cl)cccc1-c1ccc2c(c1C)OCCO2` [Example 3041, (2S)-2-((5-chloro-2-((5-cyanopyridin-3-yl)methoxy)-4-((2-methyl-3-(5-methyl-2,3-dihydrobenzo[b][1,4]dioxin-6-yl)benzyl)oxy)benzyl)amino)-3-hydroxy-2-methylpropanoic Acid] the IC50 (value given as range class) was 0.21 to 10 nM.

With `Cc1c(COc2cc(OCc3cncc(C#N)c3)c(CN[C@](C)(CO)C(=O)O)cc2Cl)cccc1-c1ccc2c(c1C)OCCO2` [Example 3042, (2R)-2-((5-chloro-2-((5-cyanopyridin-3-yl)methoxy)-4-((2-methyl-3-(5-methyl-2,3-dihydrobenzo[b][1,4]dioxin-6-yl)benzyl)oxy)benzyl)amino)-3-hydroxy-2-methylpropanoic Acid] the IC50 (value given as range class) was 0.21 to 10 nM.

`Cc1c(COc2cc(OCc3cncc(C#N)c3)c(CN[C@@H](CO)C(=O)O)cc2Cl)cccc1-c1ccc2c(c1C)OCCO2` [Example 3043, (2S)-2-((5-chloro-2-((5-cyanopyridin-3-yl)methoxy)-4-((2-methyl-3-(5-methyl-2,3-dihydrobenzo[b][1,4]dioxin-6-yl)benzyl)oxy)benzyl)amino)-3-hydroxypropanoic Acid] showed an IC50 (numeric IC50) of 3 nM.

`Cc1c(COc2cc(OCc3cncc(C#N)c3)c(CN3CCCC[C@H]3C(=O)O)cc2Cl)cccc1-c1ccc2c(c1C)OCCO2` [Example 3044, (2S)-1-(5-chloro-2-((5-cyanopyridin-3-yl)methoxy)-4-((2-methyl-3-(5-methyl-2,3-dihydrobenzo[b][1,4]dioxin-6-yl)benzyl)oxy)benzyl)piperidine-2-carboxylic Acid] gave an IC50 (value given as range class) of 0.21 to 10 nM.

With `Cc1c(COc2cc(OCc3cncc(C#N)c3)c(CN[C@](C)(CO)C(=O)O)cc2Cl)cccc1-c1cc(C#Cc2ccccc2)cc(OCCCN2CC[C@@H](O)C2)c1` [Example 3045, (R)-2-((5-chloro-2-((5-cyanopyridin-3-yl)methoxy)-4-((3′-(3-((R)-3-hydroxypyrrolidin-1-yl)propoxy)-2-methyl-5′-(phenylethynyl)-[1,1′-biphenyl]-3-yl)methoxy)benzyl)amino)-3-hydroxy-2-methylpropanoic Acid] the IC50 (value given as range class) was 2010 to 10000 nM.

Compound `Cc1c(COc2cc(OCc3cncc(C#N)c3)c(CN3CCCC[C@H]3C(=O)O)cc2Cl)cccc1-c1cccc(OCCCN2C[C@H]3CC[C@@H](C2)O3)c1C` [Example 3046, (S)-1-(4-((3′-(3-((1R,5S)-8-oxa-3-azabicyclo[3.2.1]octan-3-yl)propoxy)-2,2′-dimethyl-[1,1′-biphenyl]-3-yl)methoxy)-5-chloro-2-((5-cyanopyridin-3-yl)methoxy)benzyl)piperidine-2-carboxylic Acid] has an IC50 (value given as range class) of 0.21 to 10 nM.

`Cc1c(COc2cc(OCc3cncc(C#N)c3)c(CN3CCCC[C@H]3C(=O)O)cc2Cl)cccc1-c1cccc(OCCCN2CCO[C@@H](CO)C2)c1C` [Example 3047, (S)-1-(5-chloro-2-((5-cyanopyridin-3-yl)methoxy)-4-((3′-(3-((R)-2-(hydroxymethyl)morpholino)propoxy)-2,2′-dimethyl-[1,1′-biphenyl]-3-yl)methoxy)benzyl)piperidine-2-carboxylic Acid] gave an IC50 (value given as range class) of 0.21 to 10 nM.

`Cc1c(COc2cc(OCc3cncc(C#N)c3)c(CN3CCCC[C@H]3C(=O)O)cc2Cl)cccc1-c1cccc(OCCCN2[C@@H]3CC[C@H]2CC(O)C3)c1C` (stereo partly drawn) [Example 3048, (2S)-1-(5-chloro-2-((5-cyanopyridin-3-yl)methoxy)-4-((3′-(3-((1R,5S)-3-hydroxy-8-azabicyclo[3.2.1]octan-8-yl)propoxy)-2,2′-dimethyl-[1,1′-biphenyl]-3-yl)methoxy)benzyl)piperidine-2-carboxylic Acid] was tested, and the IC50 (value given as range class) was 0.21 to 10 nM.

`Cc1c(COc2cc(OCc3cncc(C#N)c3)c(CN3CCCC[C@H]3C(=O)O)cc2Cl)cccc1-c1cccc(OCCCN2C[C@@H](C)O[C@@H](C)C2)c1C` [Example 3049, (S)-1-(5-chloro-2-((5-cyanopyridin-3-yl)methoxy)-4-((3′-(3-((2S,6R)-2,6-dimethylmorpholino)propoxy)-2,2′-dimethyl-[1,1′-biphenyl]-3-yl)methoxy)benzyl)piperidine-2-carboxylic Acid] showed an IC50 (value given as range class) of 0.21 to 10 nM.

`Cc1c(COc2cc(OCc3cncc(C#N)c3)c(CN3CCCC[C@H]3C(=O)O)cc2Cl)cccc1-c1cccc(OCCCN2CCOCC2CO)c1C` (stereo partly drawn) [Example 3050, (2S)-1-(5-chloro-2-((5-cyanopyridin-3-yl)methoxy)-4-((3′-(3-(3-(hydroxymethyl)morpholino)propoxy)-2,2′-dimethyl-[1,1′-biphenyl]-3-yl)methoxy)benzyl)piperidine-2-carboxylic Acid] gave an IC50 (value given as range class) of 0.21 to 10 nM.

Work on `Cc1c(COc2cc(OCc3cncc(C#N)c3)c(CN3CCCC[C@H]3C(=O)O)cc2Cl)cccc1-c1cccc(OCCCN2[C@@H]3CC[C@H]2COC3)c1C` [Example 3051, (S)-1-(4-((3′-(3-((1R,5S)-3-oxa-8-azabicyclo[3.2.1]octan-8-yl)propoxy)-2,2′-dimethyl-[1,1′-biphenyl]-3-yl)methoxy)-5-chloro-2-((5-cyanopyridin-3-yl)methoxy)benzyl)piperidine-2-carboxylic Acid] yielded an IC50 (value given as range class) of 0.21 to 10 nM.

For `Cc1c(COc2cc(OCc3cncc(C#N)c3)c(CN3CCCC[C@H]3C(=O)O)cc2Cl)cccc1-c1cccc(OCCCN2C3COCC2COC3)c1C` [Example 3052, (S)-1-(4-((3′-(3-((1s,5s)-3,7-dioxa-9-azabicyclo[3.3.1]nonan-9-yl)propoxy)-2,2′-dimethyl-[1,1′-biphenyl]-3-yl)methoxy)-5-chloro-2-((5-cyanopyridin-3-yl)methoxy)benzyl)piperidine-2-carboxylic Acid], the IC50 (value given as range class) was 0.21 to 10 nM.

With `COC(=O)[C@@H]1CCCCN1Cc1cc(Cl)c(OCc2cccc(-c3cccc(OCCCN4CCOCC4)c3C)c2C)cc1OCc1cccc(C#N)c1` [Example 3053, (S)-methyl 1-(5-chloro-2-((3-cyanobenzyl)oxy)-4-((2,2′-dimethyl-3′-(3-morpholinopropoxy)-[1,1′-biphenyl]-3-yl)methoxy)benzyl)piperidine-2-carboxylate, 2 TFA] the IC50 (value given as range class) was 100 to 2000 nM.

`Cc1c(COc2cc(OCc3cccc(C#N)c3)c(CN3CCCC[C@H]3C(=O)O)cc2Cl)cccc1-c1cccc(OCCCN2[C@@H]3CC[C@H]2COC3)c1C` [Example 3055, (S)-1-(4-((3′-(3-((1R,5S)-3-oxa-8-azabicyclo[3.2.1]octan-8-yl)propoxy)-2,2′-dimethyl-[1,1′-biphenyl]-3-yl)methoxy)-5-chloro-2-((3-cyanobenzyl)oxy)benzyl)piperidine-2-carboxylic Acid] gave an IC50 (value given as range class) of 0.21 to 10 nM.

Work on `Cc1c(COc2cc(OCc3cncc(C#N)c3)c(CN3CCCC[C@H]3C(=O)O)cc2Cl)cccc1-c1cccc(OCCCN2CCOC(c3ccccc3)C2)c1C` (stereo partly drawn) [Example 3056, (2S)-1-(5-chloro-2-((5-cyanopyridin-3-yl)methoxy)-4-((2,2′-dimethyl-3′-(3-(2-phenylmorpholino)propoxy)-[1,1′-biphenyl]-3-yl)methoxy)benzyl)piperidine-2-carboxylic Acid] yielded an IC50 (value given as range class) of 0.21 to 10 nM.
